“And” between values parts separate entries of the source, which are not always exact repeats. Equal values may be shown once.
Experiments:
Assay type in all cases: in vivo
Kochia scoparia (KCHSC) = assay: Post-emergence application in greenhouse trials, KCHSC
Experimental: (§1) In the examples below, using the method of S. R. Colby (1967) “Calculating synergistic and antagonistic responses of herbicide combinations”, Weeds 15, p. 22ff., the value E, which is expected if the activity of the individual active compounds is only additive, was calculated: E=X+Y−(X·Y/100) • where • X=percent activity using active herbicide A at an application rate a; • Y=percent activity using active trifludimoxazin at an application rate b; • E=expected activity (in %) by A+B at application rates a+b.
(§2) If the value found experimentally is higher than the value E calculated according to Colby, a synergistic effect is present.
(§3) The culture containers used were plastic pots containing loamy sand with approximately 3.0% of humus as substrate. The seeds of the test plants were sown separately for each species.
(§4) For the post-emergence treatment, the test plants were grown to a plant height of from 3 to 15 cm, depending on the plant habit, and only then treated with the active compounds which had been suspended or emulsified in water. To this end, the test plants were either sown directly, and grown in the same containers, or they were first grown separately as seedlings and transplanted into the test containers a few days prior to treatment.
(§5) Depending on the species, the plants were kept at 10-25° C. and 20-35° C., respectively.
(§6) The test period extended over 2 to 4 weeks. During this time, the plants were tended and their response to the individual treatments was evaluated.
(§7) Evaluation was carried out using a scale from 0 to 100. 100 means no emergence of the plants, or complete destruction of at least the above-ground parts, and 0 means no damage or normal course of growth. A good herbicidal activity is given at values of at least 70, and very good herbicidal activity is given at values of at least 85.
(§8) In the greenhouse trials, unless indicated otherwise, herbicide A, trifludimoxazin and saflufenacil were formulated (50 g/I) and applied with addition of 1% MSO (methylated seed oil) as adjuvant. The solvent used was water (200 I/ha).

[1] = system: Amaranthus palmeri (AMAPA); assay: Post-emergence application in field trials, AMAPA; conditions: 21 DAT; water volume 200 l/ha; 0.25 l/ha Dash MSO Max; pre plant burndown; height 30 cm; B-1 12.5 g ai/ha
Experimental: as §1, §2
(§9) On field test sites, natural weed infestation or seeded weeds were treated post-emergence of the weeds.
(§10) In the field trials, the weedy plants were treated as indicated below.
(§11) Herbicide A-1 (342 g/I), trifludimoxazin (500 g/I) and saflufenacil (342 g/I) were, together with addition of 1% MSO (methylated seed oil) as adjuvant (unless indicated otherwise), formulated in water as distribution medium as indicated and sprayed with commercial flat fan nozzles.
(§12) In the following experiments, the herbicidal activity for the individual herbicidal compositions (solo and mixture applications) was assessed at the indicated days after treatment (DAT). The assessments for the damage on undesired weeds caused by the composition was carried out using a scale from 0 to 100%, compared to the untreated control plants. Here, 0 means no damage and 100 means complete destruction of the plants.
(§13) Herbicide A-1 (100 g/l) and trifludimoxazin (500 g/l) were, together with addition of 1% MSO (methylated seed oil) as adjuvant (unless indicated otherwise), formulated in water as distribution medium as indicated and sprayed with commercial flat fan nozzles.

[2] = system: Erigeron canadensis (ERICA); assay: Post-emergence application in field trials, ERICA; conditions: 22 DAT; water volume 200 l/ha; growth stage 15-20; 25 g ai/ha
Experimental: as §1, §2, §9, §10, §11
(§14) In the following experiments, the herbicidal activity for the individual herbicidal compositions (solo and mixture applications) was assessed at the indicated days after treatment (DAT). […]

[3] = system: Spermacoce latifolia (BOIFL); assay: Post-emergence application in field trials, BOIFL; conditions: 8 DAT; water volume 200 l/ha; growth stage 12-16; height 3-10 cm; 12.5 g ai/ha
Experimental: as §1, §2, §9, §10, §11, §12, §13

Setaria viridis (SETVI) = assay: Post-emergence application in greenhouse trials, SETVI
Experimental: as §1, §2, §3, §4, §5, §6, §7, §8

Setaria italica (SETIT) = assay: Post-emergence application in field trials, SETIT; conditions: 22 DAT; water volume 200 l/ha; growth stage 21-31; 12.5 g ai/ha
Experimental: as §1, §2, §9, §10, §11, §14

[4] = system: Sorghum halapense (SORHA); assay: Post-emergence application in greenhouse trials, SORHA
Experimental: as §1, §2, §3, §4, §5, §6, §7, §8

Cyperus iria (CYPIR) = assay: Post-emergence application in field trials, CYPIR; conditions: 3 DAT, height 3-5 cm
Experimental: as §1, §2, §9, §10, §11, §12, §13

[5] = system: Euphorbia heterophylla (EPHHL); assay: Post-emergence application in field trials, EPHHL; conditions: 43 DAT; water volume 200 l/ha; growth stage 16-18; height 10-15 cm; 12.5 g ai/ha
Experimental: as §1, §2, §9, §10, §11, §14

[6] = system: Abutilon theophrasti (ABUTH); assay: Post-emergence application in greenhouse trials, ABUTH
Experimental: as §1, §2, §3, §4, §5, §6, §7, §8

[7] = system: Senna obtusifolia (CASOB); assay: Post-emergence application in field trials, CASOB; conditions: 43 DAT; water volume 200 l/ha; growth stage 12-35; height 5-20 cm; 12.5 g ai/ha
Experimental: as §1, §2, §9, §10, §11, §12, §13

[8] = system: Brachiaria decumbens (BRADC); assay: Post-emergence application in field trials, BRADC; conditions: 3 DAT; water volume 200 l/ha; growth stage 21-31; height 3-20 cm; 12.5 g ai/ha
Experimental: as §1, §2, §9, §10, §11, §14

Hordeum vulgare (HORVS) = assay: Post-emergence application in field trials, HORVS; conditions: water volume 100 l/ha, pre plant burndown, 18 g ai/ha
Experimental: as §1, §2, §9, §10, §11, §12, §13

[9] = system: Digitaria sanguinales (DIGSA); assay: Post-emergence application in greenhouse trials, DIGSA
Experimental: as §1, §2, §3, §4, §5, §6, §7, §8

[10] = 20 DAT, growth stage 14, 0.3 g ai/ha

C#CCN1C(=O)C(F)(F)Oc2cc(F)c(-n3c(=O)n(C)c(=S)n(C)c3=O)cc21 [B-1, trifludimoxazin]
% Herbicidal activity (Kochia scoparia (KCHSC); 6 DAT, GS 33, B-1 0.3 g ai/ha): 45% | % Herbicidal activity (Kochia scoparia (KCHSC); 6 DAT, GS 33, B-1 0.5 g ai/ha): 80% | % Herbicidal activity (Kochia scoparia (KCHSC); 6 DAT, GS 33, B-1 0.8 g ai/ha): 85% | % Herbicidal activity (Kochia scoparia (KCHSC); 20 DAT, GS 33, B-1 0.3 g ai/ha): 35% | % Herbicidal activity (Kochia scoparia (KCHSC); 20 DAT, GS 33, B-1 0.9 g ai/ha): 80% | % Herbicidal activity (Kochia scoparia (KCHSC); 20 DAT, GS 33, B-1 1 g ai/ha): 98% | % Herbicidal activity (Kochia scoparia (KCHSC); 20 DAT, growth stage 33, 0.3 g ai/ha): 35% | % Herbicidal activity (Kochia scoparia (KCHSC); 20 DAT, growth stage 33, 0.5 g ai/ha): 75% | % Herbicidal activity [1]: 20% | % Herbicidal activity [2]: 27% | % Herbicidal activity [3]: 68% | % Herbicidal activity (Setaria viridis (SETVI); 7 DAT, GS 14, B-1 0.3 g ai/ha): 35% | % Herbicidal activity (Setaria viridis (SETVI); 7 DAT, GS 14, B-1 0.8 g ai/ha): 45% | % Herbicidal activity (Setaria viridis (SETVI); 7 DAT, GS 14, B-1 0.9 g ai/ha): 55% | % Herbicidal activity (Setaria viridis (SETVI); 7 DAT, GS 14, B-1 1 g ai/ha): 60% | % Herbicidal activity (Setaria viridis (SETVI); 20 DAT, GS 14, B-1 0.3 g ai/ha): 10% | % Herbicidal activity (Setaria viridis (SETVI); 20 DAT, GS 14, B-1 0.9 g ai/ha): 70% | % Herbicidal activity (Setaria viridis (SETVI); [10]): 10% | % Herbicidal activity (Setaria italica (SETIT)): 27% | % Herbicidal activity ([4]; 7 DAT, B-1 formulated as 500 g/l, GS 14, B-1 1 g ai/ha): 15% | % Herbicidal activity ([4]; 7 DAT, B-1 formulated as 500 g/l, GS 14, B-1 2 g ai/ha): 35% | % Herbicidal activity ([4]; 20 DAT, B-1 formulated as 500 g/l, GS 14, B-1 2 g ai/ha): 30% | % Herbicidal activity ([4]; 20 DAT, GS 14, B-1 0.9 g ai/ha): 65% | % Herbicidal activity ([4]; 20 DAT, GS 14, B-1 1.1 g ai/ha): 65% | % Herbicidal activity [4, 10]: 10% | % Herbicidal activity (Cyperus iria (CYPIR); water volume 200 l/ha, growth stage 13-14, 25 g ai/ha): 63% | % Herbicidal activity (Cyperus iria (CYPIR); water volume 300 l/ha, burndown in fruit plantation (citrus), GS 13-14, B-1 25 g ai/ha): 65% | % Herbicidal activity [5]: 60% | % Herbicidal activity ([6]; 6 DAT, GS 33, B-1 0.2 g ai/ha): 20% | % Herbicidal activity ([6]; 6 DAT, GS 33, B-1 0.3 g ai/ha): 20% | % Herbicidal activity ([6]; 6 DAT, GS 33, B-1 0.4 g ai/ha): 35% | % Herbicidal activity ([6]; 20 DAT, GS 33, B-1 0.3 g ai/ha): 0% | % Herbicidal activity ([6]; 20 DAT, growth stage 33, 0.2 g ai/ha): 0% | % Herbicidal activity [7]: 48% | % Herbicidal activity [8]: 43% | % Herbicidal activity (Hordeum vulgare (HORVS); 28 DAT, growth stage 21-24, height 15-37 cm): 0% | % Herbicidal activity (Hordeum vulgare (HORVS); 29 DAT, growth stage 15-24, height 25-45 cm): 0% | % Herbicidal activity ([9]; 7 DAT, GS 12, B-1 0.3 g ai/ha): 15% and 10% | % Herbicidal activity ([9]; 7 DAT, GS 12, B-1 0.4 g ai/ha): 15% | % Herbicidal activity ([9]; 7 DAT, GS 12, B-1 0.8 g ai/ha): 45% | % Herbicidal activity ([9]; 19 DAT, B-1 formulated as 500 g/l, GS 13, B-1 2 g ai/ha): 40%
